According to patent US10335403B2, “Niacin formulation” (Zeenar Enterprises Pty Ltd., priority 2013, dated 2019):

System: PGE2 production in 3T3 cells
Assay: PGE2 inhibition in 3T3 cells stimulated with calcium ionophore (Cayman PGE2 monoclonal EIA kit)
Type: cell-based
Conditions: Mus musculus, NIH3T3, at 0.488 μg/mL, relative to control cells not exposed, read-out: highest PGE2 inhibition observed
Description: As is known in the art, prostaglandin E2 (PGE2) activity can be used to measure anti-inflammatory activity of a substance. PGE2 inhibitory activity can be measured by the ability of test samples to inhibit PGE2 production in 3T3 cells when stimulated with calcium ionophore. As understood in the art, aspirin and ibuprofen may be included in the assay as a positive control. The in vitro production of PGE2 from 3T3 cells was measured using the Cayman Chemical Prostaglandin E2 monoclonal EIA (Enzyme Immuno Assay) kit. The cells were exposed to extracts derived from dunder and molasses and stimulated with calcium ionophore. The cell supernatants were then assayed for PGE2 production. The cell cytotoxicity of the samples was tested against 3T3 cells to confirm that the observed PGE2 inhibition was not due to cell cytotoxicity. Aspirin and ibuprofen were used as positive controls.

CC(C)Cc1ccc(C(C)C(=O)O)cc1 (stereo not shown) [ibuprofen]
inhibition at 0.488 µg/mL: 42.1%
